{"source": "paper PMC8592419", "about": "(PLoS ONE, 2021)", "key": {"[1]": {"system": "M. abscessus clinical isolate MAB06", "format": "cell-based, M. abscessus subsp. abscessus", "details": "3 days at 37°C", "protocol": "(§1) Briefly, serial dilutions of the AMPs were prepared with potassium phosphate buffer (PPB) from the concentration range of 3.125 to 400 μg/ml and then 50 μl of each dilution were added to each 96-well plate. Colonies of the isolate were suspended and then further diluted in Mueller-Hinton broth to obtain a final concentration of 1×10^3 CFU/ml (optimized according to the available AMP stock concentration). Fifty microliters of this inoculum were added to each well of the plates. The plates were incubated for 3 days at 37°C. Plain media and bacterial suspensions without AMPs were used as negative and positive controls. The MIC values were read and recorded. All assays were performed in duplicate and two independent experiments.\n(§2) For the in vitro antimicrobial susceptibility, the same protocol as described above was used. The culture plates were further incubated up to 3 days at 37°C. The MIC values were read and recorded."}, "[2]": {"system": "M. abscessus clinical isolate MAB02", "format": "cell-based, M. abscessus subsp. abscessus", "details": "3 days at 37°C", "protocol": "as §1, §2"}, "[3]": {"system": "M. abscessus clinical isolate MAB11", "experiment": "In vitro antimicrobial susceptibility of potential AMPs, broth microdilution, 3 days", "format": "cell-based, M. abscessus subsp. abscessus", "details": "3 days at 37°C", "protocol": "as §1, §2"}, "[4]": {"system": "M. abscessus clinical isolate MAB04", "experiment": "In vitro antimicrobial susceptibility of potential AMPs, broth microdilution, 3 days", "format": "cell-based, M. abscessus subsp. abscessus", "details": "3 days at 37°C", "protocol": "as §1, §2"}, "[5]": {"system": "M. abscessus clinical isolate MAB05", "experiment": "In vitro antimicrobial susceptibility of potential AMPs, broth microdilution, 3 days", "format": "cell-based, M. abscessus subsp. abscessus", "details": "3 days at 37°C", "protocol": "as §1, §2"}, "[6]": {"system": "M. abscessus clinical isolate MAB07", "experiment": "In vitro antimicrobial susceptibility of potential AMPs, broth microdilution, 3 days", "format": "cell-based, M. abscessus subsp. abscessus", "details": "3 days at 37°C", "protocol": "as §1, §2"}, "[7]": {"system": "M. abscessus clinical isolate MAB03", "experiment": "In vitro antimicrobial susceptibility of potential AMPs, broth microdilution, 3 days", "format": "cell-based, M. abscessus subsp. abscessus", "details": "3 days at 37°C", "protocol": "as §1, §2"}, "[8]": {"system": "M. abscessus clinical isolate MAB10", "experiment": "In vitro antimicrobial susceptibility of potential AMPs, broth microdilution, 3 days", "format": "cell-based, M. abscessus subsp. abscessus", "details": "3 days at 37°C", "protocol": "as §1, §2"}, "[9]": {"system": "M. abscessus clinical isolate MAB01", "experiment": "In vitro antimicrobial susceptibility of potential AMPs, broth microdilution, 3 days", "format": "cell-based, M. abscessus subsp. abscessus", "details": "3 days at 37°C", "protocol": "as §1, §2"}, "[10]": {"system": "M. abscessus clinical isolate MAB09", "experiment": "In vitro antimicrobial susceptibility of potential AMPs, broth microdilution, 3 days", "format": "cell-based, M. abscessus subsp. abscessus", "details": "3 days at 37°C", "protocol": "as §1, §2"}, "[11]": {"system": "M. abscessus clinical isolate MAB08", "experiment": "In vitro antimicrobial susceptibility of potential AMPs, broth microdilution, 3 days", "format": "cell-based, M. abscessus subsp. abscessus", "details": "3 days at 37°C", "protocol": "as §1, §2"}, "[12]": {"system": "clinical isolates of M. abscessus", "experiment": "In vitro susceptibility of potential AMPs, 3 days, summary over isolates", "format": "cell-based, Mycobacterium abscessus", "details": "isolates MAB01 and MAB03", "protocol": "as §1, §2"}, "[13]": {"system": "sixteen clinical Mab isolates", "experiment": "24-hour bactericidal activity assay, summary over isolates", "format": "cell-based, Mycobacterium abscessus", "details": "majority of the tested strains (10/16 isolates); equivalent of <50 μg/ml", "protocol": "as §1\nPotential AMPs from the screening assays were subjected to determine the 24-hour bactericidal activity assays (corresponding to the common time of administration) with sixteen clinical Mab isolates using the protocol as described above. To observe the early antimicrobial activities, the plates were incubated for 24 h at 37°C. The samples from each well were further diluted in 0.05% Tween 80 and inoculated on Mueller-Hinton agar. After incubation for 3 days at 37°C, the colony-forming units (CFUs) were counted and calculated for the percentage of killing using the following formula: % killing = 1 - (CFU sample/ CFU control) ×100."}, "[14]": {"system": "human red blood cells (RBCs)", "experiment": "Hemolytic toxicity test", "format": "cell-based", "details": "for Hemolytic activities (%hemolysis): human RBCs, 1 h at 37°C, mean±SD of duplicates, two independent experiments", "protocol": "For the hemolytic toxicity test, red blood cells (RBCs) from fresh blood samples of healthy volunteers were obtained by centrifugation at 1,000 rpm for 5 min. The cells were washed three times with sterile phosphate buffered saline (PBS) and adjusted into 1×10^8 cells/ml. AMPs were diluted with PPB in ranging from 6.25 to 400 μg/ml. Fifty microliters of the RBC suspensions and 50 μl of AMP solutions were added to 1.5 ml sterile microtubes, incubated for 1 h at 37°C and then centrifuged at 1,000 rpm for 5 min. The supernatants were transferred to new 96-well microtiter plates for measurement of the absorbance at 540 nm using a microplate reader. RBC suspensions treated with 2% (v/v) Triton X-100 and PBS solution were used as positive and negative controls. The percentages of hemolysis were calculated using the following formula: % of RBC lysis = 100 × [(Test—PBS) / (Positive control—PBS)]. All assays were performed in duplicate and two independent experiments."}, "[15]": {"system": "M. abscessus clinical isolate MAB16", "experiment": "In vitro antimicrobial susceptibility of potential AMPs, broth microdilution, 3 days", "format": "cell-based, M. abscessus subsp. massiliense", "details": "3 days at 37°C", "protocol": "as §1, §2"}, "[16]": {"system": "M. abscessus clinical isolate MAB14", "experiment": "In vitro antimicrobial susceptibility of potential AMPs, broth microdilution, 3 days", "format": "cell-based, M. abscessus subsp. massiliense", "details": "3 days at 37°C", "protocol": "as §1, §2"}, "[17]": {"system": "M. abscessus clinical isolate MAB15", "experiment": "In vitro antimicrobial susceptibility of potential AMPs, broth microdilution, 3 days", "format": "cell-based, M. abscessus subsp. massiliense", "details": "3 days at 37°C", "protocol": "as §1, §2"}, "[18]": {"system": "M. abscessus clinical isolate MAB12", "experiment": "In vitro antimicrobial susceptibility of potential AMPs, broth microdilution, 3 days", "format": "cell-based, M. abscessus subsp. massiliense", "details": "3 days at 37°C", "protocol": "as §1, §2"}, "[19]": {"system": "human peripheral blood mononuclear cells (PBMCs)", "experiment": "PBMC toxicity, trypan blue exclusion assay", "format": "cell-based", "details": "1 h at 37°C, mean±SD of duplicates, two independent experiments", "protocol": "For the toxicity of the potential AMPs to human peripheral blood mononuclear cells (PBMCs), the trypan blue exclusion assay was used. Fresh human PBMCs were prepared from blood samples of healthy volunteers using the Ficoll density gradient technique. The cells were centrifuged at 1,800 rpm for 20 min at 20°C and washed three times with PBS and adjusted with RPMI-1640 medium into 6.25×10^5 cells/ml. Fifty microliters of PBMC suspension and 50 μl of AMP solutions (6.25–400 μg/ml) were added to the 96-well microtiter plates and incubated for 1 h at 37°C. Then, 20 μl of the samples were mixed with 20 μl of 0.4% (w/v) trypan blue solution (0.81% NaCl and 0.06% (w/v) dibasic potassium phosphate) in microtubes and incubated for 3 min at room temperature. The PBMC suspensions treated with PBS were used as negative controls. PBMCs were counted using a dual-chamber hemocytometer under a light microscope. Viable and non-viable cells were counted under a microscope and the percentage of viable cells was calculated using the following formula: % of viable cells = [1.00 –([…] / Number of total cells)] × 100. All assays were performed in duplicate with two independent experiments."}, "Mab ATCC19977 strain": {"system": "Mab ATCC19977 strain", "format": "cell-based, Mycobacterium abscessus", "protocol": "as §1"}, "[20]": {"system": "M. abscessus clinical isolate MAB13", "format": "cell-based, M. abscessus subsp. massiliense", "details": "3 days at 37°C", "protocol": "as §1, §2"}}, "note": "Where a SMILES comes first, the peptide text is derived from it.", "data": [{"smiles": "CC(C)C[C@H](NC(=O)[C@H](CCCCN)NC(=O)[C@H](CC(C)C)NC(=O)[C@H](CC(C)C)NC(=O)[C@H](CC(C)C)NC(=O)[C@H](CC(C)C)NC(=O)[C@H](CC(C)C)NC(=O)[C@H](CCCCN)NC(=O)[C@H](CC(C)C)NC(=O)[C@@H](N)CCCCN)C(=O)O", "note": "[KLK1] (H-KLKLLLLLKL-OH)", "values": [{"measurement": "Antimicrobial peptides against M. abscessus isolates, MIC value", "setting": "[1]", "result": ">400", "unit": "µg/mL"}, {"measurement": "Antimicrobial peptides against M. abscessus isolates, MIC value", "setting": "[2]", "result": ">400", "unit": "µg/mL"}, {"measurement": "Antimicrobial peptides against M. abscessus isolates, MIC value", "setting": "[3]", "result": ">400", "unit": "µg/mL"}, {"measurement": "Antimicrobial peptides against M. abscessus isolates, MIC value", "setting": "[4]", "result": ">400", "unit": "µg/mL"}, {"measurement": "Antimicrobial peptides against M. abscessus isolates, MIC value", "setting": "[5]", "result": ">400", "unit": "µg/mL"}, {"measurement": "Antimicrobial peptides against M. abscessus isolates, MIC value", "setting": "[6]", "result": ">400", "unit": "µg/mL"}, {"measurement": "Antimicrobial peptides against M. abscessus isolates, MIC value", "setting": "[7]", "result": 50, "unit": "µg/mL"}, {"measurement": "Antimicrobial peptides against M. abscessus isolates, MIC value", "setting": "[8]", "result": ">400", "unit": "µg/mL"}, {"measurement": "Antimicrobial peptides against M. abscessus isolates, MIC value", "setting": "[9]", "result": 25, "unit": "µg/mL"}, {"measurement": "Antimicrobial peptides against M. abscessus isolates, MIC value", "setting": "[10]", "result": ">400", "unit": "µg/mL"}, {"measurement": "Antimicrobial peptides against M. abscessus isolates, MIC value", "setting": "[11]", "result": ">400", "unit": "µg/mL"}, {"measurement": "MIC values after 3 days", "setting": "[12]", "result": "20.93 to 41.85", "unit": "µM"}, {"measurement": "MIC with ~99% killed within 24 h", "setting": "[13]", "result": "< 41.85", "unit": "µM"}, {"measurement": "Hemolytic activities (%hemolysis)", "setting": "[14]; 6.25 µg/mL", "result": "0.7±0.50", "unit": "%"}, {"measurement": "Hemolytic activities (%hemolysis)", "setting": "[14]; 12.5 µg/mL", "result": "4.93±2.49", "unit": "%"}, {"measurement": "Hemolytic activities (%hemolysis)", "setting": "[14]; 25 µg/mL", "result": "8.27±1.74", "unit": "%"}, {"measurement": "Hemolytic activities (%hemolysis)", "setting": "[14]; 50 µg/mL", "result": "12.15±0.25", "unit": "%"}, {"measurement": "Hemolytic activities (%hemolysis)", "setting": "[14]; 100 µg/mL", "result": "15.85±1.49", "unit": "%"}, {"measurement": "Hemolytic activities (%hemolysis)", "setting": "[14]; 200 µg/mL", "result": "18.13±0.25", "unit": "%"}, {"measurement": "Hemolytic activities (%hemolysis)", "setting": "[14]; 400 µg/mL", "result": "22.18±1.99", "unit": "%"}, {"measurement": "hemolysis at the MICs level", "setting": "[14]; at the MICs level, single figure of the abstract", "result": 10.21, "unit": "%"}, {"measurement": "Antimicrobial peptides against M. abscessus isolates, MIC value", "setting": "[15]", "result": ">400", "unit": "µg/mL"}, {"measurement": "Antimicrobial peptides against M. abscessus isolates, MIC value", "setting": "[16]", "result": ">400", "unit": "µg/mL"}, {"measurement": "Antimicrobial peptides against M. abscessus isolates, MIC value", "setting": "[17]", "result": ">400", "unit": "µg/mL"}, {"measurement": "Antimicrobial peptides against M. abscessus isolates, MIC value", "setting": "[18]", "result": ">400", "unit": "µg/mL"}, {"measurement": "Viable cells of PBMCs (% viable cells)", "setting": "[19]; 6.25 µg/mL", "result": "102.52±5.04", "unit": "%"}, {"measurement": "Viable cells of PBMCs (% viable cells)", "setting": "[19]; 12.5 µg/mL", "result": "100.00±2.95", "unit": "%"}, {"measurement": "Viable cells of PBMCs (% viable cells)", "setting": "[19]; 25 µg/mL", "result": "92.70±4.41", "unit": "%"}, {"measurement": "Viable cells of PBMCs (% viable cells)", "setting": "[19]; 50 µg/mL", "result": "94.34±2.80", "unit": "%"}, {"measurement": "Viable cells of PBMCs (% viable cells)", "setting": "[19]; 100 µg/mL", "result": "91.68±8.42", "unit": "%"}, {"measurement": "Viable cells of PBMCs (% viable cells)", "setting": "[19]; 200 µg/mL", "result": "65.81±4.51", "unit": "%"}, {"measurement": "Viable cells of PBMCs (% viable cells)", "setting": "[19]; 400 µg/mL", "result": "44.62±7.22", "unit": "%"}, {"measurement": "MIC values", "setting": "Mab ATCC19977 strain", "result": 400, "unit": "µg/mL"}, {"measurement": "Antimicrobial peptides against M. abscessus isolates, MIC value", "setting": "[20]", "result": ">400", "unit": "µg/mL"}]}]}
